Experimental data reported in patent US20240225970A1, “A METHOD OF REDUCING SKIN IRRITATION, COMPRISING THE APPLICATION TO THE SKIN OF AN ALPHA-BISABOLOL PREPARED BY A BIOTECHNOLOGICAL PROCESS” (Givaudan SA, priority 2020, published 2024).

Tested on: pruritus of the scalp
Test: Double-blind, placebo-controlled clinical evaluation of scalp itching intensity with shampoos containing 0.5% bisabolol
Format: in vivo, human
Conditions: for itching intensity, Mean +/− SEM: scale of 0-10, washed once a day, volunteers with pruritus of the scalp; for itching intensity, Mean +/− SEM / itching intensity, Δ % mean: shampoo with 0.5% by weight bisabolol; for itching intensity, Δ % mean: D14 versus D0 (T0)
Excerpt: Comparison of the improvement in skin soothing effect using shampoos formulated with bio-bisabolol, chemically-produced bisabolol and plant-derived bisabolol. Samples of the bio-bisabolol prepared according to Example 1, a commercially-available synthetic bisabolol and a bisabolol derived from chamomile oil were incorporated into shampoo formulations at 0.5% by weight. An untreated sample of the shampoo was included as placebo. A double-blind, inter-individual and placebo-controlled clinical evaluation was performed on 80 volunteers (both men and women of age 18 and over). The subjects had Fitzpatrick skin types I to IV, and all suffered from pruritus of the scalp. The volunteers washed and rinsed their hair once a day and itching intensity was evaluated on days 1 and 14, using a scale of 0-10, where 0 represents no itching and 10 represents […].

## CC(C)=CCC[C@@](C)(O)[C@@H]1CC=C(C)CC1 [Example 1 bio-bisabolol, (−)-α-bisabolol]
D0
  itching intensity, Mean +/− SEM: 4.3 ± 0.4
D14
  itching intensity, Mean +/− SEM: 0.3 ± 0.2
  itching intensity, Δ % mean: −93%
After 14 days of application, p<0.1
  reduction in scalp irritation in comparison with the placebo group: 25%

## CC(C)=CCC[C@](C)(O)[C@@H]1CC=C(C)CC1 [Plant bisabolol]
D0
  itching intensity, Mean +/− SEM: 4.8 ± 0.5
D14
  itching intensity, Mean +/− SEM: 1.5 ± 0.4
  itching intensity, Δ % mean: −69%
After 14 days of application
  reduction in scalp irritation in comparison with the placebo (in words): did not show any significant reduction

## CC(C)=CCC[C@](C)(O)[C@@H]1CC=C(C)CC1 [Synthetic bisabolol]
D0
  itching intensity, Mean +/− SEM: 4.4 ± 0.5
D14
  itching intensity, Mean +/− SEM: 1.3 ± 0.4
  itching intensity, Δ % mean: −70%
After 14 days of application
  reduction in scalp irritation in comparison with the placebo (in words): did not show any significant reduction
